# Literature values, collected in patent US20050250788A1, “Aqueous outflow enhancement with vasodilated aqueous cavity” (priority 2004, published 2005).
# Where a name gives a salt, the structure may show the parent alone.
# How the values were obtained:
# [1] = at low concentrations
# [2] = not given; remark: listed apart in the source
# [3] = chronic, patients with essential hypertension
# [4] = for area under the plasma concentration time curve / mean peak plasma concentration (C(max)): multiple oral once-daily doses of 200 mg
# [5] = placebo-controlled, normal volunteers
# [6] = not given; remark: listed apart in the source
# [7] = system: adrenergic (alpha(1), alpha(2) and beta), cholinergic, GABA, dopaminergic, histaminergic, serotonergic (5-HT1A, 5-HT1B, 5-HT2) or benzodiazepine binding sites
# [8] = system: norepinephrine and dopamine neuronal reuptake
# [9] = topical
compound,measurement,setting,value
COc1ccccc1OCCNCC(O)c1ccc(C)c(S(N)(=O)=O)c1 (stereo not drawn) [5-[1-hydroxy-2-[2-(2-methoxyphenoxyl)ethylamino]ethyl]-2-methylbenzenesulfonamide],intraocular pressure reducing activity,[1],excellent intraocular pressure reducing activity
CC[C@@H]1C(=O)OC[C@@H]1Cc1cncn1C [Pilocarpine],output of clear fluid after administration into a glaucomatous eye,,increase the output of clear fluid
"CN[C@H]1CC[C@@H](c2ccc(Cl)c(Cl)c2)c2ccccc21 [Sertraline hydrochloride, (1S-cis)-4-(3,4-dichlorophenyl)-1,2,3,4-tetrahydro-N-methyl-1-nanphthalenamine hydrochloride]",solubility in ethanol,[2]; ethanol,sparingly soluble
same,solubility in isopropyl alcohol,[2]; isopropyl alcohol,slightly soluble
same,solubility in water,[2]; water,slightly soluble
C[C@H](CS)C(=O)N1CCC[C@H]1C(=O)O [captopril],decrease in mean arterial pressure compared with placebo baseline,[3],equivalent decreases
N[C@H]1CC[C@@H](c2ccc(Cl)c(Cl)c2)c2ccccc21 [desmethylsertraline],elevation of plasma levels in the elderly,"[4]; elderly, following multiple dosing",3 fold
same,half-life,"[4]; metabolite, multiple oral once-daily doses of 200 mg sertraline",65 h
same,area under the plasma concentration time curve,[4],2300 ng·h/mL
same,mean peak plasma concentration (C(max)),[4],140 ng/mL
CNC(=O)Oc1ccc2c(c1)[C@]1(C)CCN(C)[C@@H]1N2C [eserine],output of clear fluid after administration into a glaucomatous eye,,increase the output of clear fluid
CC(N/C(=N\C#N)Nc1ccncc1)C(C)(C)C (stereo not drawn) [pinacidil],decrease in mean arterial pressure compared with placebo baseline,[3],equivalent decreases
COc1cc2nc(N3CCN(C(=O)c4ccco4)CC3)nc(N)c2cc1OC [prazosin],decrease in mean arterial pressure compared with placebo baseline,[3],equivalent decreases
CN[C@H]1CC[C@@H](c2ccc(Cl)c(Cl)c2)c2ccccc21 [sertraline],psychomotor performance,[5],did not interfere with psychomotor performance
same,sedation,[5],did not cause sedation
same,dose proportionality,[4]; clinical dose range of 50 to 200 mg/day,Linear dose proportionality
same,area under the plasma concentration time curve,[4],2800 ng·h/mL
same,mean peak plasma concentration (C(max)),[4],190 ng/mL
same,increase of bioavailability by food,"[4]; oral, with food",about 40%
same,average terminal elimination half-life,[4]; single or multiple oral once-daily doses of 50 to 400 mg/day,approximately 26 hours
same,plasma protein bound,[6],Approximately 98%
same,affinity for binding sites,[7],no significant affinity
same,effects on norepinephrine and dopamine neuronal reuptake,[8],only very weak effects
cyclosporin-A,post-surgical increases in intraocular pressure,[9],reduce post-surgical increases in intraocular pressure
